Data on three molecules can be found in patent US5283255A, “Wavelength-specific cytotoxic agents” (The University of British Columbia, priority 1992, dated 1994).

For one data set, the system named is M-1 rhabdomycoscercoma. Description: In vivo photosensitization, M-1 rhabdomyosarcoma system in DBA/J2 mice. How it is done: Studies of potential photosensitizers were performed using the M-1 rhabdomycoscercoma system in DBA/J2 mice. The compositions to be tested were diluted to a concentration of […] in PBS from a stock solution in DMSO at 8 mg/ml (except Photofrin® II, which was diluted directly from the clinical vial). […]

A further data set is described as follows: Absorption spectrum. The conditions noted are these: R^1 and R^2 carbomethoxy; FIG. 3. The format is physicochemical. The text has this:
All of the compositions of the invention employ as the light absorbing compound, a derivative of the protoporphyrin ring system which has a light absorption maximum in the range of 670-780 nanometers. […] Only BPD-DA has a major absorption peak at about 685 nm.

The next data set concerns tumor cells. Nature of the data set: Alternate in vivo assay: kill of tumor cells from dosed mice (MTT). The following applies: 80 μg/mouse IV, 180 min.
In a further data set the test system is tumor and normal tissues. The following applies: mouse, in vivo.
Data set [1] has as its system human erythrocytes (RBCS). Nature of the data set: In vitro photosensitization: hemolysis of human erythrocytes after irradiation. The data set is classed as cell-based. The following applies: Erythrocyte, 0.5 h, light 300-750 nm, 30 minutes, read-out: concentration required to obtain 50% hemolysis. How it is done:
(§1) Target cells were washed three times in serum-free medium (DME), counted and made up to a concentration of 10^7 cells per ml.
(§2) For the "affinity" assay, in the dark, 100 μl of the target cell suspension and 100 μl of the test or control compound were mixed. "Labeling" was allowed to continue for one hour at 4° C., and labeled cells were washed in the dark three times with 3 ml medium each time and resuspended in fresh medium. The resuspended cells were then subjected to light exposure at 300-750 nanometers for 30 minutes.
When human erythrocytes (RBCS) were used as target cells, the hemolysis caused by irradiation of control (hematoporphyrin, Hp) labeled and green porphyrin (Gp) labeled cells were estimated visually. The Gp used in this Example was the BPD-DB of FIG. 2 wherein R^1 and R^2 are carboethoxy. […] Thus, a concentration of 250 ng/ml Hp was required under the above conditions to obtain 50% hemolysis while only 10 ng/ml of green porphyrin was required to hemolyze 50% of the RBCs.

A further data set relates to Normal lymphocytes. Description: In vitro photosensitization, kill of normal lymphocytes. The data set is classed as cell-based. The following applies: Lymphocyte, read-out: LD50 (the source's name). As to the method: as §1, §2
(§3) In a "direct" assay the target cells were irradiated immediately upon addition of the test or control compound.
(§4) The effect of irradiation was estimated using methods appropriate to the target cells.
(§5) The results of each determination on a variety of cells is shown in Table 1 (LD50 in the concentration of compound required to kill 50% of the cell population.)

The test system of a further data set is HL-60. Description: In vitro photosensitization, kill of HL-60 cells. The format is cell-based. The following applies: Homo sapiens, read-out: LD50 (the source's name). As to the method:
as §1, §2, §3, §4, §5

In the next data set the test system is K562. Description: In vitro photosensitization, kill of K562 cells. The format is cell-based. The following applies: Homo sapiens, read-out: LD50 (the source's name). As to the method: as §1, §2, §3, §4, §5
The subject of another data set is KG-1. Nature of the data set: In vitro photosensitization, kill of KG-1 cells. The format is cell-based. The following applies: Homo sapiens, read-out: LD50 (the source's name). How it is done:
as §1, §2, §3, §4, §5

For data set [2], the system named is murine mastocytoma cell line P815. Description: In vitro photosensitization, kill of P815 cells. The format is cell-based. The conditions noted are these: Mus musculus; for IC50: P815, read-out: LD50 (the source's name). How it is done:
as §1, §2, §3
When the murine mastocytoma cell line P815 was used, the results were determined as follows:
The cells were labeled as above using concentration of 10-50 ng/ml of Hp as control and the BPD-DB as the test substance. The resuspended cells were treated with 300-750 nm light for 30 minutes and the viability resulting was estimated by direct counting using eosin-Y exclusion, a standard procedure for differentiating living from dead cells.
In other determinations conducted as above, the cells recovered from light exposure were assayed for viability by incubating them for 18 hours in 10 μCi/ml tritium-labeled thymidine according to the standard procedure whereby thymidine incorporation is equated with viability. The cells were harvested and radioactivity uptake was measured by a scintillation counter.
as §5

The next data set concerns P815 cells. Nature of the data set: Selective binding of green porphyrin: kill of labeled P815 cells. The conditions noted are these: Mus musculus, P815, 0.5 h; labeled in dark 30 minutes, washed, 300-750 nm light 30 minutes; read-out: concentration at which 50% of the P815 cells were destroyed. The data set is classed as cell-based, murine. As to the method: P815 cells were incubated as described in Example 1 using 1-200 ng/ml Hp or Gp. The Gp was BPD-DB of FIG. 2 wherein R^1 and R^2 are carboethoxy. The cells were labeled in the dark for 30 minutes, washed free of unabsorbed porphyrins, resuspended, and then exposed to 300-750 nm light for another 30 minutes. Viability of the cells was established by tritiated thymidine incorporation after labeling with 20 μCi/ml tritiated thymidine and incubating at 37° C. for 18 hours.

A short description of data set [3]: In vivo cytotoxicity of Gp versus Hp conjugates (CAMAL-1 and anti-M1 procedures). The following applies: at appropriate wavelengths. As to the method:
The efficacy of the conjugates and of the Gp compounds of the invention in vivo is also assessed. For the CAMAL-1 and anti-Ml conjugates, the procedures are as described in the two Mew et al. papers referenced above in Example 4.

Molecules are shown by their SMILES. Converted amounts (≈) assume the structure as drawn. Read-outs that look alike come from different tables or passages of the source.

From the text for tumor and normal tissues: Biodistribution studies have been conducted using tritiated BPD-MA and BPD-MB.

In the case of `C=Cc1c(C)c2cc3nc(cc4[nH]c(cc5nc(cc1[nH]2)C(C)=C5CCC(=O)O)c(CCC(=O)O)c4C)C1(C)C3=CC=C(C(=O)OC)C1C(=O)OC` (stereo not shown) [BPD-DA], the “Number of Days Tumor Free (PR)” value in the data set with M-1 rhabdomycoscercoma (Table 6, 567 Jo/cm^2, IV 24 h before light) is 10.7 days. Besides, in the data set on M-1 rhabdomycoscercoma (Table 6, 567 Jo/cm^2, 8 animals per group), the “Cures (tumor regressed and tumor-free for 30 days)” value is 4. Besides, in the data set on M-1 rhabdomycoscercoma (Table 7, light dose 378 To/cm^3), the “Days Tumor-free” value came out at 2.5 days. In the data set with M-1 rhabdomycoscercoma (Table 7, light dose 378 To/cm^3, 9-15 animals), the “Number of Cures” value came out at 4. The major absorption peak entry in “Absorption spectrum” is “about 685 nm”. Further, the “% Kill” value in the data set on tumor cells (light dose 3.8 Jo) was found to be 11.0%; in the data set on tumor cells (light dose 7.6 Jo), 26.0%.

For the molecule `C=Cc1c(C)c2cc3nc(cc4[nH]c(cc5nc(cc1[nH]2)C(C)=C5CCC(=O)O)c(CCC(=O)OC)c4C)C1(C)C3=CC=C(C(=O)OC)C1C(=O)OC` (stereo not shown) [^3 H-BPD-MA], in the data set with tumor and normal tissues (180 min), the “ratio of concentration in tumor to Blood” value is 0.52, the “ratio of concentration in tumor to Brain” value was determined as 3.76, the “ratio of concentration in tumor to Heart” value came to 1.09 and the “ratio of concentration in tumor to Intestine” value (shortened to “ratio … to Intestine”) is on record as 2.42. For the same molecule, in the data set on tumor and normal tissues (180 min), the “ratio of concentration in tumor to Lung” value worked out at 0.79, the “ratio of concentration in tumor to Muscle” value (shortened to “ratio … to Muscle”) worked out at 2.68, the “ratio of concentration in tumor to Skin” value was 2.57 and the “ratio of concentration in tumor to Stomach” value (“ratio … to Stomach” below) is on record as 1.57. Moreover, in the data set on tumor and normal tissues (1440 min), the “ratio of concentration in tumor to Blood” value came out at 1.45, the “ratio of concentration in tumor to Brain” value was 3.06, the “ratio of concentration in tumor to Heart” value came to 1.71 and the “ratio … to Intestine” value is given as 1.85. Moreover, in the data set with tumor and normal tissues (1440 min), the “ratio of concentration in tumor to Lung” value amounted to 1.55, the “ratio … to Muscle” value stood at 2.98, the “ratio of concentration in tumor to Skin” value came to 1.64 and the “ratio … to Stomach” value came out at 1.89. For the same molecule, in the data set on tumor and normal tissues (2880 min), the “ratio of concentration in tumor to Blood” value was determined as 1.37, the “ratio of concentration in tumor to Brain” value was found to be 2.92, the “ratio of concentration in tumor to Heart” value was 1.63 and the “ratio … to Intestine” value worked out at 1.88. In the data set on tumor and normal tissues (2880 min), the “ratio of concentration in tumor to Lung” value stood at 1.47, the “ratio … to Muscle” value is reported as 2.77, the “ratio of concentration in tumor to Skin” value is 1.95 and the “ratio … to Stomach” value is 2.08. Moreover, in the data set on tumor and normal tissues (4320 min), the “ratio of concentration in tumor to Blood” value came out at 1.66, the “ratio of concentration in tumor to Brain” value amounted to 2.69, the “ratio of concentration in tumor to Heart” value came to 1.46 and the “ratio … to Intestine” value is reported as 1.48. For the same molecule, in the data set on tumor and normal tissues (4320 min), the “ratio of concentration in tumor to Lung” value stood at 1.16, the “ratio … to Muscle” value stood at 2.16, the “ratio of concentration in tumor to Skin” value is 1.57 and the “ratio … to Stomach” value is given as 2.04. Besides, in the data set on tumor and normal tissues (5760 min), the “ratio of concentration in tumor to Blood” value worked out at 2.77, the “ratio of concentration in tumor to Brain” value was determined as 4.18, the “ratio of concentration in tumor to Heart” value worked out at 2.24 and the “ratio … to Intestine” value was determined as 3.29. For the same molecule, in the data set on tumor and normal tissues (5760 min), the “ratio of concentration in tumor to Lung” value came to 1.63, the “ratio … to Muscle” value came out at 3.45, the “ratio of concentration in tumor to Skin” value is 2.03 and the “ratio … to Stomach” value was 2.23. In addition, in the data set on tumor and normal tissues (10080 min), the “ratio of concentration in tumor to Blood” value stood at 3.65, the “ratio of concentration in tumor to Brain” value is 6.91, the “ratio of concentration in tumor to Heart” value was 2.51 and the “ratio … to Intestine” value was determined as 2.23. Also, in the data set with tumor and normal tissues (10080 min), the “ratio of concentration in tumor to Lung” value amounted to 1.79, the “ratio … to Muscle” value is 4.23, the “ratio of concentration in tumor to Skin” value is 3.51 and the “ratio … to Stomach” value is listed as 2.98. The “Tumor skin ratios, most favorable time” value in the data set on tumor and normal tissues (iv) is “most favorable 3 hours after IV administration”.

Turning to `C=Cc1c(C)c2cc3nc(cc4[nH]c(cc5nc(cc1[nH]2)C1(C)C5=CC=C(C(=O)OCC)C1C(=O)OCC)c(C)c4CCC(=O)O)C(CCC(=O)O)=C3C` (stereo not shown) [Gp], the EC50 in data set [1] was 0.01 µg/mL; in [2] (P815, 0.5 h, 300-750 nm light for 30 minutes, read-out: concentration at which fifty percent of the P815 cells were killed), 0.032 µg/mL; in the data set on P815 cells it was 0.006 to 0.02 µg/mL (≈ 0.00819 to 0.0273 µM). The IC50 amounted to 0.011 µg/mL with Normal lymphocytes (Affinity test); 0.0042 µg/mL in the data set with Normal lymphocytes (Direct test); 0.0072 µg/mL in the data set with HL-60 (HL-60, Affinity test); 0.0035 µg/mL in the data set on HL-60 (HL-60, Direct test); 0.033 µg/mL in the data set with K562 (K562, Affinity test); 0.07 µg/mL in the data set on K562 (K562, Direct test). In addition, the IC50 came to 0.08 µg/mL in the data set on KG-1 (KG-1, Affinity test); 0.163 µg/mL in the data set with KG-1 (KG-1, Direct test); 0.026 µg/mL in data set [2] (P815, Affinity test); 0.032 µg/mL in data set [2] (P815, Direct test). The “in vivo efficacy of Gp compound alone compared to Hp labeled conjugates” value in data set [3] is reported as “superior results”.
